Two molecules from patent US9938335B2, “Glucagon and GLP-1 co-agonist compounds” (Eli Lilly and Company, priority 2015, dated 2018) can be followed below.

The nature of series [1]: Viscosity (Rheosense mVroc Viscometer). As to conditions: approximately 10 mg/mL peptide in 10 mM Tris + 3 mg/mL m-cresol at pH 8.0; 25° C.; shear rate 1934 s^−1. The format is physicochemical. On the procedure: Viscosity of compounds of the present invention is measured in a Rheosense mVroc Viscometer with the following settings:
(a) Syringe size: 500 μL syringe
(b) Flow Rate: 100 μL/min flow rate
(c) Average Temperature: 25° C.
(d) Shear Rate: 1934 s^−1
Dry powder (compound) is weighed out, dissolved in water as a cloudy precipitate, and titrated to approximately pH 8.0 with 1N NaOH. The solution is sonicated and swirled by hand until peptide is in solution. Samples are sterile filtered (0.22 μm PVDF filters). Samples are then analyzed by UV-Vis to assess stock solution concentrations. Solutions are diluted to final concentration using 3× m-cresol in 10 mM Tris pH 8.0 buffer to final concentrations of approximately 10 mg/mL peptide by weight in 10 mM Tris+3 mg/mL m-cresol at pH 8.0. Samples were filtered through 0.22 μm filters immediately prior to viscosity analysis. 25 μL of sample are removed to verify concentration by RP-HPLC before and after analysis.
Water and buffer control samples are measured before and after each sample is analyzed. The instrument is washed with buffer (3×) in between analysis of each sample. The samples are loaded into individual syringes and analyzed. The first measurement is not included in the final calculation to allow for equilibration with the system. Samples are then analyzed in triplicate (n=3).
The viscosity of Compounds 1-4 was measured essentially as described in this assay.

The target in series [2] is T1, Human Gcg-R (Homo sapiens, UniProt P47871).
T1 construct: expressed in transfected cells; host or cells: HEK-293 clonal cell line over-expressing the receptor
Put plainly: Functional hGcg-R assay (cAMP HTRF, HEK-293 clonal cell line). The format is cell-based. The settings on record: for Emax: HEK293; for EC50: cAMP, 60 minute incubation, 0.25% FBS, 0.05% BSA, geometric mean, read-out: Human Gcg-R EC50, nM ± SEM, (n). A general note: TR-FRET usually uses a lanthanide donor and a delayed reading to cut background.
Procedure: (§1) After a 60 minute incubation at room temperature, the resulting increase in intracellular cAMP (adenosine 3′,5′-cyclic monophosphate) is quantitatively determined using the CisBio cAMP Dynamic 2 HTRF Assay Kit (62AM4PEJ). cAMP levels within the cell are detected by adding the cAMP-d2 conjugate in cell lysis buffer (20 μl) followed by the antibody anti-cAMP-Eu^3+-Cryptate, also in cell lysis buffer (20 μl).
(§2) A relative EC50 value and percent top (Emax) are derived by non-linear regression analysis using the percent maximal response vs. the concentration of peptide added, fitted to a four-parameter logistic equation (Genedata Screener®).
(§3) Means for EC50 are expressed as Geometric means±standard error of the mean (SEM) with the number of replicates (n) indicated in parenthesis. Means for Emax are expressed as the arithmetic mean±standard error. ND signifies that agonist activity was not detected.

The subject of series [3] is DIO mice (C57BL/6). Put plainly: Glycemic control in DIO mice. The format is in vivo, mouse. The settings on record: for 44 hours Glucose AUC (% of Vehicle): OGTT 44 hours post-injection; for 44 hours Glucose AUC (% of Vehicle) / 78 hours Glucose AUC (% of Vehicle): 25 nmol/kg sc; for 78 hours Glucose AUC (% of Vehicle): OGTT 78 hours post-injection; for glucose excursions post an oral glucose challenge: OGTTs at 44 and 78 hours post injection, 25 nmol/kg; for Blood glucose (mg/dL) post-injection, Mean: male DIO mice, 25 nmol/kg sc once. On the procedure:
Five to six months old male DIO mice (C57BL/6) from Taconic Biosciences are used in this study. Animals are individually housed in a temperature-controlled (24° C.) facility with a 12 hour light/dark cycle (lights on 6:00), and free access to food and water. After two weeks acclimation to the facility, the mice are randomized to treatment groups (n=7/group) based on their body weight and blood glucose. Mice are injected subcutaneously once with vehicle or compounds (25 nmol/kg). Blood glucose is monitored 2 and 8 hours post-injection and then once a day at 08:00 for 4 days. OGTTs are performed at 44 and 78 hours post the peptide injection. Statistics are analyzed using ANOVA with Dunnett's comparison by JMP 6. Significance is denoted at p≤0.05 vs vehicle.

Series [4] deals with DIO mice (C57BL/6). Description: Chronic treatment in DIO mice (body weight, fat, food intake). The format is in vivo, mouse. As for the experimental part:
The effects on food intake and body weight/fat are evaluated in DIO mice. Five to six months old DIO mice (C57BL/6) from Taconic Biosciences are used in this study. Animals are individually housed in a temperature-controlled (24° C.) facility with a 12 hour light/dark cycle (lights on 6:00), and free access to food and water. The mice are acclimated to the facility for two weeks. The day before the study start, fat mass is measured by nuclear magnetic resonance (NMR) using an Echo Medical System (Houston, Tex.) instrument. The mice are randomized to treatment groups (N=7/group) based on body weight and fat mass so each group had similar starting mean body weight and fat mass. […] SC injections are made on Day 1, 4, 7, 10, and 13. Body weight and food intake are measured right before each injection throughout the study. Percent changes in body weight are calculated as follows: […]
At the completion of the study, total fat mass is measured again by NMR. Statistics are analyzed using ANOVA with Dunnett's comparison by JMP 6. Significance is denoted at p≤0.05 vs. vehicle.

Series [5] deals with DIO mice (C57BL/6). Put plainly: Acute treatment in DIO mice (PCSK9, FGF-21, cholesterol). It counts as in vivo, mouse. The settings on record: 30 nmol/kg sc, 16 hours post dose. On the procedure:
In order to investigate metabolic pathways involved with the treatment of compounds of the present invention independent of weight loss, compounds are tested in DIO mice (C57BL/6) acutely. The mice used are three to four months old on a high fat diet for at least 4 weeks. Animals are individually housed in a temperature-controlled (24° C.) facility with a 12 hour light/dark cycle (lights on 6:00), and free access to food and water. Vehicle or testing compounds were administered to mice by subcutaneous injection at 16:00 the day before the study day. Animals were sacrificed 16 hours later to collect blood via cardia puncture. Statistics are analyzed using ANOVA with Dunnett's comparison for JMP-6. Significance is denoted at p≤0.05 vs vehicle.
Food intake was decreased to a similar level in all treatment groups, which may indicate that changes in cholesterol, PCSK9 and FGF-21 are food-intake independent.

The target of series [6] is T2, hGLP-1-R (Homo sapiens, UniProt P43220). Put plainly: Functional hGLP-1-R assay (cAMP HTRF, HEK-293 clonal cell line). The format is cell-based. On the set-up: expressed in transfected cells; host or cells: HEK-293 clonal cell line over-expressing the receptor. As to conditions: for Emax: HEK293; for EC50: cAMP, 60 minute incubation, 0.25% FBS, 0.05% BSA, geometric mean, read-out: Human GLP-1-R EC50, nM ± SEM (n).
Procedure: as §1, §2, §3

In series [7] the target is T2, hGLP-1-R. Description: hGLP-1R Binding Assay (SPA radioligand competition, 293HEK membranes). On the set-up: expressed in transfected cells; host or cells: 293HEK, stably transfected with plasmid phD, Hygromycin-selected; crude plasma membranes. As to conditions: read-out: Ki, nM ± SEM at the hGLP-1-R. For orientation: Displacement assays read how much labelled ligand stays bound in the presence of the test substance.

Setting [8] is: 15 nmol/kg sc every three days for 15 days.
Setting [9] is: 30 nmol/kg sc every three days for 15 days.

SMILES strings stand for the structures. Marks after values point to notes of the source that are not given here. Starred links: 1 amine or outer side, 2 acyl side, 3 side chain; linkers in the order of their positions; H or OH if unused. Non-standard residues stand in square brackets, D forms with d. Residues, ends and D or L forms follow the SMILES beside them. Groups on a side chain read outwards from the residue. *: point of attachment. C18 diacid = O=C(O)CCCCCCCCCCCCCCCCC(=O)*; γGlu = O=C(O)[C@H](CCC(=O)[*:2])N[*:1]; AEEA = NCCOCCOCC(=O)O; Aib = CC(C)(N)C(=O)O

T1 sequence (P47871 26-477): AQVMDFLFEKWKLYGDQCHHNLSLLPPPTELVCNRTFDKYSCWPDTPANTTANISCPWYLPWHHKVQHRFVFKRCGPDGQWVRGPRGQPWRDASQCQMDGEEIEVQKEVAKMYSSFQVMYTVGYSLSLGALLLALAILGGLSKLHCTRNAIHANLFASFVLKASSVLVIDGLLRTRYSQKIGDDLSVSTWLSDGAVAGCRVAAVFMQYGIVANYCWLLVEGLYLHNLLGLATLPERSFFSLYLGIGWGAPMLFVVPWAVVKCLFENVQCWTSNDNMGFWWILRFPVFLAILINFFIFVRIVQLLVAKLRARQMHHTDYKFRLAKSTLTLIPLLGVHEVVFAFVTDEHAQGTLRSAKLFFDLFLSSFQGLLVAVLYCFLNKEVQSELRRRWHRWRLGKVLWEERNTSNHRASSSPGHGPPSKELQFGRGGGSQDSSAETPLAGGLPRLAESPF
T2 sequence (P43220 24-463): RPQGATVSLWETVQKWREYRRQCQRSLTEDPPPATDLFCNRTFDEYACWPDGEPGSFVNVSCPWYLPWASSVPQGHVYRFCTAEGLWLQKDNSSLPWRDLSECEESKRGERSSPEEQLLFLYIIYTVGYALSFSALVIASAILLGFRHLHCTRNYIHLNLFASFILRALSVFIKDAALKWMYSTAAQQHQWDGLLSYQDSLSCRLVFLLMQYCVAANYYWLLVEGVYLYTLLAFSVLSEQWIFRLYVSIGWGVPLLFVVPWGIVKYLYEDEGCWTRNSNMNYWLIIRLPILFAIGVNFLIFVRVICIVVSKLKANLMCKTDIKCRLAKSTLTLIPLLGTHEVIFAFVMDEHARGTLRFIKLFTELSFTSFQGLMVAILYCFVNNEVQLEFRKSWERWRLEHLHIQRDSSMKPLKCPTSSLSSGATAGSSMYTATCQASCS

For the molecule `CC(C)C[C@H](NC(=O)[C@H](CC(C)C)NC(=O)[C@H](Cc1c[nH]c2ccccc12)NC(=O)[C@H](CCC(=O)O)NC(=O)[C@@H](NC(=O)[C@H](Cc1ccccc1)NC(=O)[C@H](CCC(=O)O)NC(=O)[C@H](CCCCNC(=O)COCCOCCNC(=O)COCCOCCNC(=O)CC[C@H](NC(=O)CC[C@H](NC(=O)CCCCCCCCCCCCCCCCC(=O)O)C(=O)O)C(=O)O)NC(=O)[C@H](C)NC(=O)[C@H](CCCCN)NC(=O)[C@H](CCCCN)NC(=O)[C@H](CCC(=O)O)NC(=O)[C@H](CC(=O)O)NC(=O)[C@H](CC(C)C)NC(=O)[C@H](Cc1ccc(O)cc1)NC(=O)[C@H](CCCCN)NC(=O)[C@H](CO)NC(=O)[C@H](Cc1ccc(O)cc1)NC(=O)[C@H](CC(=O)O)NC(=O)[C@H](CO)NC(=O)[C@@H](NC(=O)[C@H](Cc1ccccc1)NC(=O)[C@@H](NC(=O)CNC(=O)[C@H](CCC(N)=O)NC(=O)C(C)(C)NC(=O)[C@@H](N)Cc1c[nH]cn1)[C@@H](C)O)[C@@H](C)O)C(C)C)C(=O)N[C@@H](CO)C(=O)NCC(=O)NCC(=O)N1CCC[C@H]1C(=O)N[C@@H](CO)C(=O)N[C@@H](CO)C(=O)NCC(N)=O` [Compound 3] (H-H[Aib]QGTFTSDYSKYLDEKKAK([AEEA-AEEA-γGlu-γGlu-C18 diacid])EFVEWLLSGGPSSG-NH2; N-terminus assumed), the “500 μL syringe Viscosity” value in series [1] is 1.03 cP or mPa-s. For the same molecule, the Emax (usually the greatest response seen or fitted, relative to the assay's reference) in series [2] stood at 104 ± 5%; in series [6] it was 105 ± 5%. In addition, the figures for the EC50 in series [2] and in series [6] were 15.3 ± 2.2 nM and 34.3 ± 9.4 nM, respectively. Besides, the “44 hours Glucose AUC (% of Vehicle)” value in series [3] was 35* % of Vehicle. For the same molecule, the “78 hours Glucose AUC (% of Vehicle)” value in series [3] is 76* % of Vehicle. In addition, in series [3], the “glucose excursions post an oral glucose challenge” value is recorded as “lower glucose excursions post an oral glucose challenge at 44 hour”. Also, the “Blood glucose (mg/dL) post-injection, Mean” value in series [3] (2 hours post-injection) came out at 173.4 mg/dL; in series [3] (8 hours post-injection), 81.4 mg/dL; in series [3] (24 hours post-injection), 96.6 mg/dL; in series [3] (48 hours post-injection), 95.8 mg/dL; in series [3] (72 hours post-injection) it was 104.7 mg/dL; in series [3] (96 hours post-injection) it was 141.1 mg/dL. Moreover, the “Body Fat (% change vs. vehicle from Day 1)” value is recorded as −32* % in series [4] (setting [8]) and −67* % in series [4] (setting [9]). The results for the “Body Weight (% change vs. vehicle from Day 1)” value in series [4] (setting [8]) and in series [4] (setting [9]) were −17* % and −37* %, respectively. The “Cholesterol (% of vehicle)” value in series [5] is recorded as 55.6* % of vehicle. The “FGF-21 (% of vehicle)” value in series [5] is listed as 1124* % of vehicle. For the same molecule, the “PCSK9 (% of vehicle)” value in series [5] is 15.6* % of vehicle. For the same molecule, the Ki (as a rule, the equilibrium dissociation constant of an inhibitor or competing ligand from its target) in series [7] amounted to 8.68 ± 1.6 nM.

For `CC(C)C[C@H](NC(=O)[C@H](CC(C)C)NC(=O)[C@H](Cc1c[nH]c2ccccc12)NC(=O)[C@H](CCC(=O)O)NC(=O)[C@@H](NC(=O)[C@H](Cc1ccccc1)NC(=O)[C@H](CCC(=O)O)NC(=O)[C@H](CCCCNC(=O)COCCOCCNC(=O)COCCOCCNC(=O)CC[C@H](NC(=O)CCCCCCCCCCCCCCCCC(=O)O)C(=O)O)NC(=O)[C@H](C)NC(=O)[C@H](CCCCN)NC(=O)[C@H](CCCCN)NC(=O)[C@H](CCC(=O)O)NC(=O)[C@H](CC(=O)O)NC(=O)[C@H](CC(C)C)NC(=O)[C@H](Cc1ccc(O)cc1)NC(=O)[C@H](CCCCN)NC(=O)[C@H](CO)NC(=O)[C@H](Cc1ccc(O)cc1)NC(=O)[C@H](CC(=O)O)NC(=O)[C@H](CO)NC(=O)[C@@H](NC(=O)[C@H](Cc1ccccc1)NC(=O)[C@@H](NC(=O)CNC(=O)[C@H](CCC(N)=O)NC(=O)C(C)(C)NC(=O)[C@@H](N)Cc1c[nH]cn1)[C@@H](C)O)[C@@H](C)O)C(C)C)C(=O)N[C@@H](CCC(=O)O)C(=O)NCC(=O)NCC(=O)N1CCC[C@H]1C(=O)N[C@@H](CO)C(=O)N[C@@H](CO)C(=O)NCC(N)=O` [Compound 1], the “500 μL syringe Viscosity” value in series [1] is 1.06 cP or mPa-s. Moreover, the Emax in series [2] was determined as 112 ± 3%; in series [6], 104 ± 7%. The figures for the EC50 in series [2] and in series [6] were 7.21 ± 1.06 nM and 23.9 ± 4.5 nM, respectively. The “44 hours Glucose AUC (% of Vehicle)” value in series [3] is reported as 42* % of Vehicle. For the same molecule, the “78 hours Glucose AUC (% of Vehicle)” value in series [3] is 90 % of Vehicle. The “glucose excursions post an oral glucose challenge” value in series [3] is on record as “lower glucose excursions post an oral glucose challenge at 44 hour”. In addition, the “Blood glucose (mg/dL) post-injection, Mean” value in series [3] (2 hours post-injection) was 168.5 mg/dL; in series [3] (8 hours post-injection), 79.4 mg/dL; in series [3] (24 hours post-injection), 90.6 mg/dL; in series [3] (48 hours post-injection) it was 101.9 mg/dL; in series [3] (72 hours post-injection) it was 113.4 mg/dL; in series [3] (96 hours post-injection) it was 150.0 mg/dL. The “Body Fat (% change vs. vehicle from Day 1)” value in series [4] (setting [8]) is listed as −49* %; in series [4] (setting [9]), −66* %. Also, the “Body Weight (% change vs. vehicle from Day 1)” value is on record as −19* % in series [4] (setting [8]) and −29* % in series [4] (setting [9]). In series [5], the “Cholesterol (% of vehicle)” value was 60.9* % of vehicle. The “FGF-21 (% of vehicle)” value in series [5] is given as 1770* % of vehicle. For the same molecule, the “PCSK9 (% of vehicle)” value in series [5] was 14.6* % of vehicle. Also, in series [7], the Ki worked out at 23 ± 5.5 nM.
